# Experimental data from patent US6177572A, “Solid and liquid-phase synthesis of benzoxazoles and benzothiazoles and their use” (Sepracor, Inc., priority 1997, dated 2001).
# Key:
# Assay type in all cases: cell-based
# Saccharomyces = assay: Modified Kirby-Bauer Assay Against Saccharomyces; settings: 10 mg/ml
# Procedure: (§1) Modified Kirby-Bauer Susceptibility Testing (see, e.g., Finegold et al. "Diagnostic Microbiology," 6th Ed., C. V. Mosby Co., St. Louis, (1982), pp. 542-543: Microorganisms are grown on a solid medium in order to ensure a pure homogeneous culture. This requires an 18-24 hour grow out. Once purity is determined, the microorganism is sub-cultured by picking off one to three colonies from the solid medium using a sterile loop, and placing the colonies onto an appropriate liquid medium (e.g., Brain Heart Infusion for bacteria and Sabouraud's Dextrose for yeast or fungi). The microorganisms are then allowed to grow for 4-6 hours at the appropriate atmospheric and temperature conditions. After the 4-6 hour grow out, the microorganisms are ready for testing.
# (§2) The MacFarland standard is prepared by mixing Barium Chloride with sulfuric acid in the appropriate proportions, as is known in the art (see, e.g. Finegold et al., supra). Once the cultures have been standardized, sterile cotton swabs are used to apply the microorganisms to agar plates for testing. The plates are swabbed in three different directions, rotating the plates 60 each time. After the microorganisms have been applied to the plate, 10-12 paper disks (1/4") in diameter are spaced evenly around the plate. […] The zones are measured in millimeters and recorded. […]
# Candida = assay: Modified Kirby-Bauer Assay Against Candida; settings: 10 mg/ml
# Procedure: as §1, §2
# Staphylococcus aureus = assay: Modified Kirby-Bauer Assay Against Staphylococcus aureus; settings: read-out: zone size of inhibited microbial growth (diameter), control
# Procedure: as §1, §2
# E. Coli = assay: Modified Kirby-Bauer Assay Against E. Coli; settings: Escherichia coli, control, 10 mg/ml, read-out: zone size of inhibited microbial growth (diameter), control
# Procedure: as §1, §2
Compound,"zone size of inhibited microbial growth (diameter), control (Saccharomyces)","zone size of inhibited microbial growth (diameter), control (Candida)",zone of inhibition at 10000 µg/mL (Staphylococcus aureus),zone of inhibition at 10000 µg/mL (E. Coli)
"CCC(C)n1ncn(-c2ccc(N3CCN(c4ccc(OCC5COC(Cn6cncn6)(c6ccc(Cl)cc6Cl)O5)cc4)CC3)cc2)c1=O (single isomer, unassigned; (+)) [(+) cis-itraconazole]",12 mm,12 mm,,
"CCC(C)n1ncn(-c2ccc(N3CCN(c4ccc(OCC5COC(Cn6cncn6)(c6ccc(Cl)cc6Cl)O5)cc4)CC3)cc2)c1=O (single isomer, unassigned; (-)) [(-) cis itraconazole]",15 mm,15 mm,,
CN(C)C1C(O)=C(C(N)=O)C(=O)C2(O)C(O)=C3C(=O)c4c(O)cccc4C(C)(O)C3CC12 (stereo not drawn) [Tetracylcine],,,25 mm,22 mm
